# From patent publication US7604955B2, “Immunoglobulin E vaccines and methods of use thereof” (priority 2001, dated 2009)
# Square brackets hold non-standard residues; d marks the D form. Ends that are not written are not given here. Vat = not defined here
# Tests used:
# KLH-specific IgE = test: Allergen-specific (KLH-specific) IgE in vivo by passive cutaneous anaphylaxis (PCA); design: species or system mouse; details: BALB/c mice immunized with only OVAp in liposomes, KLH/alum challenge; pooled blood
# Protocol: In a third experiment, the effect of immunoglobulin E peptide immunization on production of allergen-specific IgE in vivo was determined. Adult BALB/c mice (5/group) were immunized twice with either the test peptide p3 or the test peptide p1, together with the co-stimulatory factor OVAp in DOTAP liposomes, or with only the co-stimulatory factor OVAp in DOTAP liposomes. Mice immunized with saline served as control. Seven days after the second immunization, mice were challenged with 1 microgram keyhole limpet hemocyanin (KLH) in 2 milligrams alum intraperitoneally four times at a 10 day interval, and the allergen-specific (KLH-specific) IgE in pooled blood was then determined by passive cutaneous anaphylaxis (PCA) reaction. […] Reduction of allergen-specific PCA correlated directly with the elicitation of IgE peptide-specific cytotoxic T-lymphocytes in vitro (as depicted in FIG. 3B).
# [1] = tested on: P815 murine mastocytoma cells; test: Chromium release assay: CTL from peptide-immunized BALB/c mice against peptide-contacted P815 cells; type: cell-based, mouse; details: for CTL response cytotoxic to target cells displaying the peptide (specific lysis): BALB/c mice immunized with 30 micrograms peptide + OVAp in DOTAP liposomes, targets contacted with same peptide and interferon-gamma
# Protocol: The test peptides p 1 and p2 were evaluated for the ability to elicit in mice a cytotoxic T-lymphocyte response to naturally presented immunoglobulin E peptides. Eight-week old BALB/c mice in groups of four were each immunized with 30 micrograms of one of the test peptides p1 or p2, together with 30 micrograms of the co-stimulatory factor OVAp (ovalbumin peptide) (Schimokevitz, 1984, J. Immunol., 133:2067), an oligopeptide consisting of the sequence […](SEQ ID NO. 3), in N-[1-(-2,3-dioleoyloxy)propyl]-N,N,N-trimethylammonium methylsulfate (DOTAP, purchased from Boehringer Mannheim, Indianapolis, Ind.) cationic liposomes. Two weeks after the first immunization, mice in each respective group were immunized a second time with the appropriate test peptide (p1 or p2) that had been used in the initial immunization. Two weeks after the second immunization, 5×10^6 spleen cells were removed from a pool of two to four mice, established in vitro, and re-stimulated with the respective test peptide in vitro for seven days. The cytotoxic T-lymphocytes thus obtained were tested using a standard chromium release assay (Colligan et al. 2002, Current Protocols in Immunology, 3.11) for their ability as effector cells to lyse target cells. The target cells consisted of P815 murine mastocytoma cells that had been contacted with the appropriate test peptide (p1 or p2) and treated overnight with 50 units per milliliter interferon-gamma to facilitate processing of the test peptide. Effector cells (E) and target cells (T) were mixed at different E/T ratios for 4 hours. The specific lysis was determined by the following formula: [(experimental release−spontaneous release)/(maximal release−spontaneous release)]×100.
# The test peptide p3 was similarly evaluated for the ability to elicit a cytotoxic T-lymphocyte response in mice to naturally processed and presented immunoglobulin E peptides. […] The specific lysis was determined by the following formula: [(experimental release−spontaneous release)/(maximal release−spontaneous release)]×100.
# [2] = tested on: LPS and IL-4 stimulated B-lymphocyte cultures; test: Polyclonal IgE production by LPS and IL-4 stimulated B-lymphocyte cultures with CTL (ELISA); type: cell-based, mouse; details: CTL from mice immunized with only OVAp in DOTAP liposomes
# Protocol: In a second experiment, BALB/c splenic B-lymphocytes were enriched by magnetic beads coated with an antibody against the B-lymphocyte-specific cell surface antigen B220. To assess CTL effects on polyclonal IgE production, 3×10^5 normal B-lymphocytes were added to either 3×10^6 p3-activated spleen cells from mice immunized with test peptide p3 together with the co-stimulatory factor OVAp in DOTAP liposomes, or to 3×10^6 p3-activated spleen cells from mice immunized with only the co-stimulatory factor OVAp in DOTAP liposomes as a control. The co-cultures were then stimulated with 20 micrograms per milliliter lipopolysaccharide (LPS) and 250 units per milliliter murine recombinant interleukin-4 (IL-4). Two days later, the culture supernatants were harvested. Immunoglobulin E levels were determined using a commercial double-sandwich ELISA assay (catalogue number 2655KI, PharMingen).
# [3] = tested on: murine EL-4 lymphoma cells; test: Chromium release assay: CTL from immunized C57BL/6 mice against p4-contacted EL-4 cells; type: cell-based, mouse; details: C57BL/6 mice immunized with p4 with OVAp; p4-contacted EL-4 targets
# From the text: Groups consisting each of five C57BL/6 mice were immunized with either 30 micrograms of the test peptide p4 with 30 micrograms of the co-stimulatory factor OVAp, or with 30 micrograms of the test peptide p5 delivered in 30 micrograms DOTAP liposomes. Two weeks after the first immunization, mice in each respective group were immunized a second time with the appropriate test peptide formulation (p4 plus OVAp, or p5 in DOTAP liposomes) that had been used in the initial immunization. Two weeks after the second immunization, 5×10^6 spleen cells were removed from a pool of two to four mice, established in vitro, and re-stimulated with the appropriate test peptide (p4 or p5) in vitro for seven days. The cytotoxic T-lymphocytes thus obtained were tested using a standard chromium release assay for their ability as effector cells to lyse target cells. The target cells consisted of murine EL-4 lymphoma cells, which display the major histocompatibility complex class I molecules H-2K^b and H-2D^b, and that had been contacted with the test peptide p4 and treated overnight with 50 units per milliliter interferon-gamma. Effector cells (E) and target cells (T) were mixed at different E/T ratios for 4 hours. The specific lysis was determined by the following formula: [(experimental release−spontaneous release)/(maximal release−spontaneous release)]×100.
# HLA-A2.1 = HLA-A2.1 cell surface expression in RMA-S-A2.1 cells (FACS); type: cell-based, human; details: for Increase of HLA-A2.1-specific fluorescence intensity: RMA-S-A2.1 cells, 50 micromoles per liter peptide, 37 C overnight, FITC anti-HLA-A2.1
# Protocol: Cells were pooled from the duplicate cultures and about 1×10^6 cells were incubated with 2 micrograms per milliliter fluorescein isothiocyanate-labelled anti-HLA-A2.1 antibody (catalogue number 32294x, PharMingen) at 4° C. for 30 min. Fluorescence-activated cell sorting (FACS) analysis was performed on a FACScan (Becton-Dickinson). About ten thousand events were collected and analyzed by CELLQuest software (version 1.2.2, BD Biosciences).
substance,measurement,setting,value
"ISQAVHAAHAEINEAGR [OVAp, co-stimulatory factor]",KLH-specific IgE PCA titre,KLH-specific IgE,160
same,CTL response against p3-treated P815 target cells,[1]; BALB/c mice immunized with OVAp in liposomes only,did not induce a substantial CTL-response
same,immunoglobulin E production in vitro,[2],did not decrease immunoglobulin E production
"IYGHILNDV [p2, lie Tyr Gly His li0e Leu Asn Asp Val]",CTL response cytotoxic to target cells displaying the peptide (specific lysis),[1],able to elicit a CTL response
Ile Gln Leu Tyr Cys Phe Ile Try Gly His Ile Leu Asn Asp Val Ser Val (IQLYCFIYGHILNDVSV; Mouse (Mus musculus)) [p4],immunoglobulin E-specific CTL response,[3],comparable levels of immunoglobulin E-specific CTL response
LLTVSGAWA [539.8],effect of exogenous human beta-2 microglobulin on surface expression of HLA-A2.1,HLA-A2.1; RMA-S-A2.1 cells incubated with peptide in presence versus absence of human beta-2 microglobulin,did not substantially enhance surface expression of HLA-A2.1
same,Increase of HLA-A2.1-specific fluorescence intensity,HLA-A2.1,one log
LYCFIYGHI [p1],CTL response cytotoxic to target cells displaying the peptide (specific lysis),[1],able to elicit a CTL response
QLPDARHST [539.9],Increase of HLA-A2.1-specific fluorescence intensity,HLA-A2.1,one log
TQSPSVFPL [539.10],Increase of HLA-A2.1-specific fluorescence intensity,HLA-A2.1,one log
Trp Val Asp Asn Lys Thr Phe Ser Vat (WVDNKTFS[Vat]; reading uncertain; also: printed as Trp Val Asp Asn Lys Thr Phe Ser Vat) [539.12],Increase of HLA-A2.1-specific fluorescence intensity,HLA-A2.1,one log
WLSDRTYTC [539.11],Increase of HLA-A2.1-specific fluorescence intensity,HLA-A2.1,one log
